T/C data for 10 compounds are collected here from PubChem BioAssay AID248 (DTP/NCI, 2004).

Molecules are shown by their SMILES. Several values for one entry are separate records, joined by “and”; a condition that tells them apart may be missing. Equal entries are not always repeated. Inconclusive results and toxic doses are left out.

The test deals with L1210 leukemia ip in BDF1 mice, survival T/C. The test can be described thus: NCI In Vivo Anticancer Drug Screen. Data for tumor model L1210 Leukemia (intraperitoneal) in B6D2F1 (BDF1) mice. Particulars: endpoint: mean survival time, higher = longer survival. Put shortly:
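Tumor was transplanted into mice, which were then dosed with test compound or vehicle alone. Survival was recorded for each group, and the treated figure was expressed relative to the control figure.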

Where [1] appears, read: dose: 50.0 mg/kg/injection, schedule: Q01DX001 (ip), vehicle: carboxymethylcellulose (CMC).
[2] abbreviates: dose: 100.0 mg/kg/injection, schedule: Q01DX001 (ip), vehicle: carboxymethylcellulose (CMC).
Setting [3] is: dose: 100.0 mg/kg/injection, schedule: Q04DX003 (ip), vehicle: saline with Tween-80.
Where [4] appears, read: dose: 200.0 mg/kg/injection, schedule: Q01DX001 (ip), vehicle: carboxymethylcellulose (CMC).
Setting [5] is: dose: 25.0 mg/kg/injection, schedule: Q01DX009 (ip), vehicle: Klucel (hydroxypropylcellulose) (HPC).
Setting [6] is: dose: 50.0 mg/kg/injection, schedule: Q01DX009 (ip), vehicle: Klucel (hydroxypropylcellulose) (HPC).
The mark [7] stands for this setting: dose: 100.0 mg/kg/injection, schedule: Q01DX009 (ip), vehicle: Klucel (hydroxypropylcellulose) (HPC).
The mark [8] stands for this setting: dose: 200.0 mg/kg/injection, schedule: Q01DX009 (ip), vehicle: Klucel (hydroxypropylcellulose) (HPC).
Setting [9] is: dose: 400.0 mg/kg/injection, schedule: Q01DX009 (ip), vehicle: Klucel (hydroxypropylcellulose) (HPC).
The mark [10] stands for this setting: dose: 100.0 mg/kg/injection, schedule: Q04DX003 (ip), vehicle: Klucel (hydroxypropylcellulose) (HPC).
The mark [11] stands for this setting: dose: 200.0 mg/kg/injection, schedule: Q04DX003 (ip), vehicle: Klucel (hydroxypropylcellulose) (HPC).
Setting [12] is: dose: 400.0 mg/kg/injection, schedule: Q04DX003 (ip), vehicle: Klucel (hydroxypropylcellulose) (HPC).
[13] abbreviates: dose: 100.0 mg/kg/injection, schedule: Q01DX001 (ip), vehicle: saline.
The mark [14] stands for this setting: dose: 200.0 mg/kg/injection, schedule: Q01DX001 (ip), vehicle: saline.
[15] abbreviates: dose: 400.0 mg/kg/injection, schedule: Q01DX001 (ip), vehicle: saline.

In the case of `CN(C)N=Nc1ccccc1`, the T/C by setting is: (dose: 4.0 mg/kg/injection, schedule: Q03HX008 (ip), vehicle: other) 102 % of control; (dose: 4.0 mg/kg/injection, schedule: Q03HX016 (ip), vehicle: other) 101 % of control; (dose: 4.0 mg/kg/injection, schedule: Q03HX024 (ip), vehicle: other) 105 % of control; (dose: 8.0 mg/kg/injection, schedule: Q03HX008 (ip), vehicle: other) 103 % of control; (dose: 8.0 mg/kg/injection, schedule: Q03HX016 (ip), vehicle: other) 103 % of control; (dose: 8.0 mg/kg/injection, schedule: Q03HX024 (ip), vehicle: other) 108 % of control. Moreover, the T/C is, setting by setting: (dose: 12.5 mg/kg/injection, schedule: Q04DX003 (ip), vehicle: saline with Tween-80) 102 % of control; (dose: 15.0 mg/kg/injection, schedule: Q01DX015 (ip), vehicle: carboxymethylcellulose (CMC)) 104 % of control and 106 % of control and 107 % of control; (dose: 16.0 mg/kg/injection, schedule: Q01DX005 (iv), vehicle: other) 111 % of control; (dose: 16.0 mg/kg/injection, schedule: Q01DX009 (ip), vehicle: other) 103 % of control; (dose: 16.0 mg/kg/injection, schedule: Q01DX009 (sc), vehicle: other) 107 % of control; (dose: 16.0 mg/kg/injection, schedule: Q03HX008 (ip), vehicle: other) 114 % of control. For the same compound, the T/C (dose: 16.0 mg/kg/injection, schedule: Q03HX016 (ip), vehicle: other) is 117 % of control; the T/C (dose: 18.0 mg/kg/injection, schedule: Q01DX015 (ip), vehicle: carboxymethylcellulose (CMC)) is 104 % of control; the T/C (dose: 25.0 mg/kg/injection, schedule: Q04DX003 (ip), vehicle: saline with Tween-80) is 123 % of control; the T/C (dose: 26.0 mg/kg/injection, schedule: Q01DX015 (ip), vehicle: carboxymethylcellulose (CMC)) is 108 % of control; the T/C (dose: 30.0 mg/kg/injection, schedule: Q01DX015 (ip), vehicle: carboxymethylcellulose (CMC)) was 110 % of control and 207 % of control; the T/C (dose: 31.25 mg/kg/injection, schedule: Q01DX001 (ip), vehicle: saline with Tween-80) is 108 % of control. Besides, the T/C is 109 % of control (dose: 32.0 mg/kg/injection, schedule: Q01DX001 (ip), vehicle: other); 102 % of control (dose: 32.0 mg/kg/injection, schedule: Q01DX001 (sc), vehicle: other); 109 % of control (dose: 32.0 mg/kg/injection, schedule: Q01DX005 (iv), vehicle: other); 122 % of control (dose: 32.0 mg/kg/injection, schedule: Q01DX009 (ip), vehicle: other); 114 % of control (dose: 32.0 mg/kg/injection, schedule: Q01DX009 (sc), vehicle: other); 120 % of control (dose: 32.0 mg/kg/injection, schedule: Q03HX024 (ip), vehicle: other). Further, the T/C is, setting by setting: (dose: 32.0 mg/kg/injection, schedule: Q04DX003 (ip), vehicle: other) 102 % of control; (dose: 32.0 mg/kg/injection, schedule: Q04DX003 (ip), vehicle: saline) 117 % of control; (dose: 32.0 mg/kg/injection, schedule: Q08DX002 (ip), vehicle: other) 107 % of control; under setting [1], 97 % of control; (dose: 50.0 mg/kg/injection, schedule: Q04DX003 (ip), vehicle: saline with Tween-80) 115 % of control; (dose: 60.0 mg/kg/injection, schedule: Q01DX015 (ip), vehicle: carboxymethylcellulose (CMC)) 119 % of control and 88 % of control. Further, the T/C is, setting by setting: (dose: 62.5 mg/kg/injection, schedule: Q01DX001 (ip), vehicle: saline with Tween-80) 111 % of control; (dose: 64.0 mg/kg/injection, schedule: Q01DX001 (ip), vehicle: other) 112 % of control; (dose: 64.0 mg/kg/injection, schedule: Q01DX001 (sc), vehicle: other) 102 % of control; (dose: 64.0 mg/kg/injection, schedule: Q01DX009 (ip), vehicle: other) 120 % of control; (dose: 64.0 mg/kg/injection, schedule: Q01DX009 (oral), vehicle: other) 122 % of control; (dose: 64.0 mg/kg/injection, schedule: Q04DX003 (ip), vehicle: other) 114 % of control. In addition, the T/C is 101 % of control (dose: 64.0 mg/kg/injection, schedule: Q08DX002 (ip), vehicle: other); 93 % of control under setting [2]; 105 % of control and 117 % of control under setting [3]; 123 % of control (dose: 128.0 mg/kg/injection, schedule: Q01DX001 (ip), vehicle: other); 109 % of control (dose: 128.0 mg/kg/injection, schedule: Q01DX001 (oral), vehicle: other); 112 % of control (dose: 128.0 mg/kg/injection, schedule: Q01DX001 (sc), vehicle: other). The T/C by setting is: (dose: 128.0 mg/kg/injection, schedule: Q01DX009 (oral), vehicle: other) 122 % of control; under setting [4], 123 % of control; (dose: 256.0 mg/kg/injection, schedule: Q01DX001 (sc), vehicle: other) 121 % of control.
On to `C/C=C/c1cc2c(c(=O)o1)C(=O)[C@@H](O)[C@H](C)O2`, for which the T/C under setting [2] is 92 % of control; the T/C under setting [4] was 103 % of control; the T/C (dose: 400.0 mg/kg/injection, schedule: Q01DX001 (ip), vehicle: carboxymethylcellulose (CMC)) is 94 % of control.
Take `CCCCCCCCCCCC[As](=O)(O)O`: the T/C runs as follows: under setting [1], 96 % of control; under setting [2], 93 % of control.
As to `COc1ccc(C(=O)OCCN(CCN(CCOC(=O)c2ccc(OC)cc2)C(=O)c2ccc(OC)cc2)C(=O)c2ccc(OC)cc2)cc1`, the T/C runs as follows: under setting [5], 88 % of control; under setting [6], 96 % of control; under setting [7], 89 % of control; under setting [8], 94 % of control; under setting [9], 105 % of control.
For the compound `CNC(=S)N/N=C(/C)C(=O)O`, the T/C under setting [7] is 96 % of control; the T/C under setting [10] is 96 % of control; the T/C under setting [8] was 96 % of control; the T/C under setting [11] is 91 % of control; the T/C under setting [9] was 102 % of control; the T/C under setting [12] is 88 % of control.
With `CCCCCCOC(=O)Nc1ccc([N+](=O)[O-])cc1OC`, the T/C was 103 % of control under setting [7], 100 % of control under setting [8] and 95 % of control under setting [9].
As for `ClC12CC3CC(CC(C3)C1)C2`, the T/C is, setting by setting: (dose: 100.0 mg/kg/injection, schedule: Q01DX009 (ip), vehicle: acetone) 92 % of control; (dose: 100.0 mg/kg/injection, schedule: Q04DX003 (ip), vehicle: acetone) 91 % of control; (dose: 200.0 mg/kg/injection, schedule: Q01DX009 (ip), vehicle: acetone) 95 % of control and 91 % of control; (dose: 200.0 mg/kg/injection, schedule: Q04DX003 (ip), vehicle: acetone) 98 % of control; (dose: 400.0 mg/kg/injection, schedule: Q01DX009 (ip), vehicle: acetone) 93 % of control; (dose: 400.0 mg/kg/injection, schedule: Q04DX003 (ip), vehicle: acetone) 88 % of control.
On to `NOCc1csc(N)n1`, for which the T/C under setting [13] was 101 % of control, the T/C under setting [14] is 95 % of control and the T/C under setting [15] is 104 % of control.
In the case of `O=C(O)C1CC2CCC1CC2` (centres undefined), the T/C reads like this: under setting [13], 104 % of control; under setting [7], 100 % of control; under setting [3], 92 % of control; under setting [14], 93 % of control; under setting [8], 92 % of control; (dose: 200.0 mg/kg/injection, schedule: Q04DX003 (ip), vehicle: saline with Tween-80) 95 % of control. In addition, the T/C under setting [15] was 100 % of control; the T/C under setting [9] is 92 % of control; the T/C (dose: 400.0 mg/kg/injection, schedule: Q04DX003 (ip), vehicle: saline with Tween-80) is 101 % of control.
With `Cc1ccc(C)c(NC(=O)Oc2ccc(C(=O)OCc3ccccc3)cc2)c1`, the T/C is 100 % of control under setting [5]; 88 % of control under setting [6]; 93 % of control and 104 % of control under setting [7]; 107 % of control under setting [10]; 95 % of control under setting [8]; 98 % of control under setting [11]. In addition, the T/C under setting [12] was 101 % of control.
